Results reported in US20100099676A1 (SHIONOGI & CO., LTD., priority 2006, published 2010).
pIC50: −log10 of the molar value.

Target: T1, MMP-13 (Homo sapiens, UniProt P45452)
T1 construct: purchased Calbiochem (EMD/MERCK Biosciences)
Experiment: Enzyme inhibiting activity of MMPs, fluorogenic peptide substrate
Type: biochemical
Details: compounds not described in the Tables; read-out: inhibiting activity for MMP-13
Method: Various human MMPs (MMP-2, MMP-9 and MMP-13) were purchased from Calbiochem (EMD/MERCK Biosciences).
Since the purchased MMP-13 was Proenzyme, the activated one was used, which was incubated at 37° C. for 2 hours after the successive addition of an assay buffer (containing 50 mM Tris-HCl (pH7.6), 0.3 M NaCl, 10 mM CaCl2, 0.005% Brij35) and APMA (final concentration 1 mM) to the enzyme solution.
The enzyme activity of MMPs was measured according to the method described in C. Graham Knight, Frances Willenbrock and Gillian Murphy: A novel coumarin-labelled peptide for sensitive continuous assays of the matrix metalloproteinases: FEBS LETT., 296, (1992), 263-266. As a substrate, MOCAc-Pro-Leu-Gly-Leu-A2Pr(DNP)- Ala-Arg-NH2 (Peptide Institute, Inc. Osaka, Japan) was used, and the following four assays are performed per compound (inhibitor) for measuring the inhibiting activity.
(A) Substrate (synthetic substrate), enzyme (MMPs), inhibitor
(B) Substrate (synthetic substrate), inhibitor
(C) Substrate (synthetic substrate), enzyme (MMPs)
(D) Substrate (synthetic substrate)
In each assay, the fluorescent intensity was measured, and inhibition (%) was calculated by the following equation.
Inhibition (%)=[I−(A−B)/(C−D)]×100
IC50 indicates a concentration at which inhibition (%) is 50%.

SMILES	pIC50
C[C@@H](NS(=O)(=O)N1CCN(c2ccc(C#Cc3ccc4cccc(/C=C/Cl)c4c3)cc2)CC1)C(=O)O [Compound I-72, (R)-2-(4-{4-[8-((E)-2-chlorovinyl)-naphthalen-2-ylethynyl]-phenyl}-piperazine-1-sulfonylamino)-proponic acid]	7.00 to 8.00
C[C@@H](NS(=O)(=O)N1CCN(c2ccc(C#Cc3ccc4cccc(-c5ncco5)c4c3)cc2)CC1)C(=O)O [Compound I-109, (R)-2-{4-[4-(8-oxazol-2-ylnaphthalen-2-ylethynyl)-phenyl]-piperazine-1-sulfonylamino}-proponic acid]	7.00 to 8.00
Cc1cnc(-c2cccc(C#Cc3ccc(N4CCN(S(=O)(=O)N[C@@H](C(=O)O)C(C)C)CC4)cc3)c2)o1 [Compound I-27, (R)-3-methyl-2-(4-{4-[3-(5-methyloxazol-2-yl)-phenylethynyl]-phenyl}-piperazine-1-sulfonylamino)-butanoic acid]	7.00 to 8.00
COc1cccc2ccc(C#Cc3ccc(N4CCN(S(=O)(=O)N[C@H](C)C(=O)O)CC4)cc3)cc12 [Compound I-99, (R)-2-{4-[4-(8-methoxynaphthalen-2-ylethynyl)-phenyl]-piperazine-1-sulfonylamino}-proponic acid]	7.00 to 8.00
C[C@@H](NS(=O)(=O)N1CCN(c2ccc(C#Cc3cccc(C(=O)NCc4ccc(Cl)cc4)c3)cc2)CC1)C(=O)O [Compound I-32, (R)-2-(4-{4-[3-(4-chlorobenzylcarbamoyl)-phenylethynyl]-phenyl}-piperazine-1-sulfonylamino)-proponic acid]	> 8.00
C[C@@H](NS(=O)(=O)N1CCN(c2ccc(C#Cc3ccc4cccc(/C=C/C(N)=O)c4c3)cc2)CC1)C(=O)O [Compound I-68, (R)-2-(4-{4-[8-((E)-2-carbamoylvinyl)-naphthalen-2-ylethynyl]-phenyl}-piperazine-1-sulfonylamino)-proponic acid]	> 8.00
CC(C)C[C@H](NS(=O)(=O)N1CCN(c2ccc(C#Cc3ccc4cccc(C(N)=O)c4c3)cc2)CC1)C(=O)O [Compound I-55, (S)-2-{4-[4-(8-carbamoylnaphthalen-2-ylethynyl)-phenyl]-piperazine-1-sulfonylamino}-4-methylpentanoic acid]	7.00 to 8.00
C[C@@H](NS(=O)(=O)N1CCN(c2ccc(C#Cc3ccc4cccc(/C=C/c5nnn[nH]5)c4c3)cc2)CC1)C(=O)O [Compound I-71]	> 8.00
Cc1cc(CNC(=O)c2cccc(C#Cc3ccc(N4CCN(S(=O)(=O)N[C@H](C)C(=O)O)CC4)cc3)c2)ccc1F [Compound I-28, (R)-2-(4-{4-[3-(4-fluoro3-methylbenzylcarbamoyl)-phenylethynyl]-phenyl}-piperazine-1-sulfonylamino)-proponic acid]	> 8.00
CCC[C@H](NS(=O)(=O)N1CCN(c2ccc(/C=C/c3ccc4cccc(C(N)=O)c4c3)cc2)CC1)C(=O)O [Compound I-59, (S)-2-(4-{4-[(E)-2-(8-carbamoylnaphthalen-2-yl)-vinyl]-phenyl}-piperazine-1-sulfonylamino)-pentanoic acid]	7.00 to 8.00
C[C@@H](NS(=O)(=O)N1CCN(c2ccc(C#Cc3ccc4cccc(S(N)(=O)=O)c4c3)cc2)CC1)C(=O)O [Compound I-81, (R)-2-{4-[4-(8-sulfamoylnaphthalen-2-ylethynyl)-phenyl]-piperazine-1-sulfonylamino}-proponic acid]	7.00 to 8.00
C[C@@H](NS(=O)(=O)N1CCN(c2ccc(C#Cc3ccc4cccc(-c5ccc[nH]5)c4c3)cc2)CC1)C(=O)O [Compound I-111, (R)-2-(4-{4-[8-(1H-pyrrol-2-yl)-naphthalen-2-ylethynyl]-phenyl}-piperazine-1-sulfonylamino)-proponic acid]	7.00 to 8.00
C[C@@H](NS(=O)(=O)N1CCN(c2ccc(C#Cc3ccc4cccc(/C=C\C#N)c4c3)cc2)CC1)C(=O)O [Compound I-69, (R)-2-(4-{4-[8-((Z)-2-cyanovinyl)-naphthalen-2-ylethynyl]-phenyl}-piperazine-1-sulfonylamino)-proponic acid]	7.00 to 8.00
C[C@@H](NS(=O)(=O)N1CCN(c2ccc(C#Cc3ccc4cccc(C(=O)NCCF)c4c3)cc2)CC1)C(=O)O [Compound I-56, (R)-2-(4-{4-[8-(2-fluoroethylcarbamoyl)-naphthalen-2-ylethynyl]-phenyl}-piperazine-1-sulfonylamino)-proponic acid]	> 8.00
CCC[C@H](NS(=O)(=O)N1CCN(c2ccc(C#Cc3ccc4cccc(C(N)=O)c4c3)cc2)CC1)C(=O)O [Compound I-92, (S)-2-{4-[4-(8-carbamoylnaphthalen-2-ylethynyl)-phenyl]-piperazine-1-sulfonylamino}-pentanoic acid]	7.00 to 8.00
C[C@H](NS(=O)(=O)N1CCN(c2ccc(C#Cc3ccc4cccc(C(N)=O)c4c3)cc2)CC1)C(=O)O [Compound I-105, (S)-2-{4-[4-(8-carbamoylnaphthalen-2-ylethynyl)-phenyl]-piperazine-1-sulfonylamino}-proponic acid]	7.00 to 8.00
C[C@@H](NS(=O)(=O)N1CCN(c2ccc(C#Cc3ccnc(C(=O)NCc4ccccc4)c3)cc2)CC1)C(=O)O [Compound I-19, (R)-2-{4-[4-(2-benzylcarbamoylpyridin-4-ylethynyl)-phenyl]-piperazine-1-sulfonylamino}-proponic acid]	> 8.00
C[C@@H](NS(=O)(=O)N1CCN(c2ccc(C#Cc3ccc4cccc(/C=C/C#N)c4c3)cc2)CC1)C(=O)O [Compound I-67, (R)-2-(4-{4-[8-((E)-2-cyanovinyl)-naphthalen-2-ylethynyl]-phenyl}-piperazine-1-sulfonylamino)-proponic acid]	> 8.00
CC(C)C[C@@H](NS(=O)(=O)N1CCN(c2ccc(C#Cc3ccc4cccc(C(N)=O)c4c3)cc2)CC1)C(=O)O [Compound I-60, (R)-2-{4-[4-(8-carbamoylnaphthalen-2-ylethynyl)-phenyl]-piperazine-1-sulfonylamino}-4-methylpentanoic acid]	7.00 to 8.00
CC(C)[C@@H](NS(=O)(=O)N1CCN(c2ccc(C#Cc3ccc4cccc(C(N)=O)c4c3)cc2)CC1)C(=O)O [Compound I-93, (R)-2-{4-[4-(8-carbamoylnaphthalen-2-ylethynyl)-phenyl]-piperazine-1-sulfonylamino}-3-methylbutanoic acid]	7.00 to 8.00
CCNC(=O)c1cccc2ccc(C#Cc3ccc(N4CCN(S(=O)(=O)N[C@H](C)C(=O)O)CC4)cc3)cc12 [Compound I-104, (R)-2-{4-[4-(8-ethylcarbamoylnaphthalen-2-ylethynyl)-phenyl]-piperazine-1-sulfonylamino}-proponic acid]	> 8.00
Cc1cnc(-c2cccc3ccc(C#Cc4ccc(N5CCN(S(=O)(=O)N[C@H](C)C(=O)O)CC5)cc4)cc23)o1 [Compound I-108, (R)-2-(4-{4-[8-(5-methyloxazol-2-yl)-naphthalen-2-ylethynyl]-phenyl}-piperazine-1-sulfonylamino)-proponic acid]	7.00 to 8.00
C[C@@H](NS(=O)(=O)N1CCN(c2ccc(C#Cc3ccc4cccc(C(=O)NCc5ccccc5)c4c3)cc2)CC1)C(=O)O [Compound I-106, (R)-2-{4-[4-(8-benzylcarbamoylnaphthalen-2-ylethynyl)-phenyl]-piperazine-1-sulfonylamino}-proponic acid]	> 8.00
CCC[C@H](NS(=O)(=O)N1CCN(c2ccc(C#Cc3ccc4cccc(C(C)=O)c4c3)cc2)CC1)C(=O)O [Compound I-110, (S)-2-{4-[4-(8-acetylnaphthalen-2-ylethynyl)-phenyl]-piperazine-1-sulfonylamino}-pentanoic acid]	7.00 to 8.00
C[C@@H](NS(=O)(=O)N1CCN(c2ccc(C#Cc3ccc4cccc(C(=O)NCCNC(=O)OC(C)(C)C)c4c3)cc2)CC1)C(=O)O [Compound I-62, (R)-2-(4-{4-[8-(2-tert-butoxycarbonylaminoethylcarbamoyl)-naphthalen-2-ylethynyl]-phenyl}-piperazine-1-sulfonylamino)-proponic acid]	7.00 to 8.00
CC(C)CO/N=C1\CCc2ccc(C#Cc3ccc(N4CCN(S(=O)(=O)N[C@H](C)C(=O)O)CC4)cc3)cc21 [Compound I-161, (R)-2-[4-(4-{3-[(E)-isobutoxyimino]indan-5-ylethynyl}-phenyl)-piperazine-1-sulfonylamino]-proponic acid]	7.00 to 8.00
Cc1cc(CNC(=O)c2cccc(/C=C/c3ccc(N4CCN(S(=O)(=O)N[C@H](C)C(=O)O)CC4)cc3)c2)ccc1F [Compound I-29, (R)-2-[4-(4-{(E)-2-[3-(4-fluoro3-methylbenzylcarbamoyl)-phenyl]-vinyl}-phenyl)-piperazine-1-sulfonylamino]-proponic acid]	7.00 to 8.00
CO/N=C(/C)c1cccc2ccc(C#Cc3ccc(N4CCN(S(=O)(=O)N[C@H](C)C(=O)O)CC4)cc3)cc12 [Compound I-96, (R)-2-{4-[4-(8-{1-[(Z)-methoxyimino]-ethyl}-naphthalen-2-ylethynyl)-phenyl]-piperazine-1-sulfonylamino}-proponic acid]	7.00 to 8.00
CC(=O)c1cccc2ccc(C#Cc3ccc(N4CCN(S(=O)(=O)N[C@@H](C(=O)O)C(C)C)CC4)cc3)cc12 [Compound I-101, (R)-2-{4-[4-(8-acetylnaphthalen-2-ylethynyl)-phenyl]-piperazine-1-sulfonylamino}-3-methylbutanoic acid]	7.00 to 8.00
